Results taken from article PMC11672637, “7-O-Carboxylic Acid-Substituted 3-O-Alkyl Difluoroquercetin; An Aztreonam-Potentiating Agent Against Carbapenemase-Producing Pseudomonas aeruginosa Through Simultaneous Inhibition of Metallo-β-Lactamase and Efflux Pump” (Antibiotics, 2024).
Like-named read-outs stand apart in the source and are kept apart here.

What was measured:
NDM-1 = target: T1, NDM-1 (Klebsiella pneumoniae, UniProt C7C422); experiment: β-lactamase inhibition assay (imipenem); assay type: biochemical; details: imipenem substrate; read-out: BLi, IC50 NDM-1
T1 construct: purchased RayBiotech, Inc. 230-00554
Method: Recombinant AmpC, OXA-48 (residues 23–265) and VIM-2 (residues 27–266) were prepared from Escherichia coli based on previously established protocols. KPC-2 and NDM-1 are commercially available from LifeSpan Biosciences, Inc., Seattle, WA, USA (LS-G26598) and RayBiotech, Inc., Peachtree Corners, GA, USA (230-00554), respectively. For β-lactamase inhibition assay, in a 96-well plate, 70–0.1 μM (in PBS) of the synthesized compounds (1~14) (100 μL) were mixed with diluted β-lactamase stock (2% DMSO in 200 μL). In a separate 96-well plate, a substrate of AmpC, KPC-2, OXA-48, and VIM-2 (nitrocefin) and NDM-1 (imipenem) were added into each well (final concentrations of 70 μM for nitrocefin and 100 μM for imipenem). After incubation at 37 °C for 20 min, the mixture of the synthesized compounds (1~14) and β-lactamase in one plate was added to the substrate in the other plate. Enzymatic hydrolysis of the substrate was then monitored by a Cytation 5 imaging multimode reader (BioTek Instruments Inc., Winooski, VT, USA) at 486 nm and 300 nm for nitrocefin and imipenem, respectively, for 15 min. The rates of hydrolysis in the presence of the inhibitors were determined when the reaction rate plateaued. Comparison of the enzymatic hydrolysis rates in the presence and the absence of inhibitors (100%) provided the percentage of enzyme inhibition at each concentration of the synthesized compounds. The IC50 values were obtained after non-linear regression (sigmoidal dose-responses) by GraphPad Prism 5 (GraphPad Software, Boston, MA, USA).

PA-003, blaVIM = experiment: MIC / checkerboard with ATM; assay type: cell-based, P. aeruginosa; details: PA-003
PA-029, blaIMP = experiment: MIC / checkerboard with ATM; assay type: cell-based, P. aeruginosa; details: for MIC: Pseudomonas aeruginosa, read-out: MIC of ATM with 5, PA-029
PA-030, blaIMP = experiment: MIC / checkerboard with ATM; assay type: cell-based, P. aeruginosa; details: for MIC: Pseudomonas aeruginosa, read-out: MIC of ATM with 5, PA-030
[1] = tested on: NDM-1-Producing P. aeruginosa (PA-017, blaNDM); experiment: MIC / checkerboard with ATM; assay type: cell-based; details: for MIC: Pseudomonas aeruginosa
PA-025, blaNDM = experiment: MIC / checkerboard with ATM; assay type: cell-based, P. aeruginosa; details: for MIC: Pseudomonas aeruginosa, read-out: MIC of ATM with 5, PA-025
PA-028, blaNDM = experiment: MIC / checkerboard with ATM; assay type: cell-based, P. aeruginosa; details: for MIC: Pseudomonas aeruginosa, read-out: MIC of ATM with 5, PA-028
PA-034, blaNDM = experiment: MIC / checkerboard with ATM; assay type: cell-based, P. aeruginosa; details: PA-034

T1 sequence (C7C422 29-270, looked up, species assumed): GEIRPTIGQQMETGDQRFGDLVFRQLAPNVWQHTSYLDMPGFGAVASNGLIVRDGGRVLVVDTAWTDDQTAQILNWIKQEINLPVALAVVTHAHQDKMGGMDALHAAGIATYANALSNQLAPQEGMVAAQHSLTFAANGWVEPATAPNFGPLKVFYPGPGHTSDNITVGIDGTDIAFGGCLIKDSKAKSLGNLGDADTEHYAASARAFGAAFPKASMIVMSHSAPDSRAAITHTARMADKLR

With `CC(C)(C)CCOc1c(-c2ccc(F)c(F)c2)oc2cc(OCC(=O)O)cc(O)c2c1=O` [Compound 5, 2-((2-(3,4-Difluorophenyl)-3-(3,3-dimethylbutoxy)-5-hydroxy-4-oxo-4H-chromen-7-yl)oxy)acetic Acid] the IC50 (NDM-1) was 6.1 ± 0.4 µM, the “Activity (FICI class)” value (PA-003, blaVIM) was “I (I (indifference, 0.5 < FICI ≤ 4))” and the “Concentrations of ATM and 5 at lowest FICI (ATM/5)” value (from here on “Concentrations”) (PA-003, blaVIM) was 16/1. For the same compound, the “Minimum concentration of 5 to make sensitive to ATM” value (shortened to “Minimum concentration”) (PA-003, blaVIM) was 1 mg/L, the “MIC of ATM with 5” value (PA-003, blaVIM; 5 at 2 mg/L) was 16 µg/mL and the “MIC of ATM with 5” value (PA-003, blaVIM; 5 at 4 mg/L) was 16 µg/mL. For the same compound, the “MIC of ATM with 5” value (PA-003, blaVIM; 5 at 8 mg/L) was 16 µg/mL, the “MIC of ATM with 5” value (PA-003, blaVIM; 5 at 16 mg/L) was 16 µg/mL and the “MIC of ATM with 5” value (PA-003, blaVIM; 5 at 32 mg/L) was 16 µg/mL. The “MIC of ATM with 5” value (PA-003, blaVIM; 5 at 64 mg/L) was 16 µg/mL, the “Susceptibility to ATM” value (PA-003, blaVIM; ATM/5) was “I (I (intermediate, MIC = 16 mg/L))” and the “FD (fold decrease in MIC of ATM with 5)” value (PA-003, blaVIM; lowest-FICI combination) was 2. For the same compound, the MIC (PA-003, blaVIM; Pseudomonas aeruginosa, read-out: MIC of ATM with 5, 5 at 1 mg/L) was 16 µg/mL, the “Activity (FICI class)” value (PA-029, blaIMP; PA-029) was “S (S (Synergy, FICI ≤ 0.5))” and the “Concentrations” value (PA-029, blaIMP; PA-029) was 8/16. The “Lowest FICI (ATM/5)” value (PA-029, blaIMP; PA-029) was 0.28, the “Minimum concentration” value (PA-029, blaIMP; PA-029) was 16 mg/L and the “Susceptibility to ATM” value (PA-029, blaIMP; PA-029, ATM/5) was “S (S (sensitive, MIC ≤ 8 mg/L))”. The “FD (fold decrease in MIC of ATM with 5)” value (PA-029, blaIMP; PA-029, lowest-FICI combination) was 4, the MIC (PA-029, blaIMP; 5 at 1 mg/L) was 32 µg/mL and the MIC (PA-029, blaIMP; 5 at 2 mg/L) was 32 µg/mL. The MIC (PA-029, blaIMP; 5 at 4 mg/L) was 16 µg/mL, the MIC (PA-029, blaIMP; 5 at 8 mg/L) was 16 µg/mL and the MIC (PA-029, blaIMP; 5 at 16 mg/L) was 8 µg/mL. For the same compound, the MIC (PA-029, blaIMP; 5 at 32 mg/L) was 8 µg/mL, the MIC (PA-029, blaIMP; 5 at 64 mg/L) was 8 µg/mL and the “Activity (FICI class)” value (PA-030, blaIMP; PA-030) was “S (S (Synergy, FICI ≤ 0.5))”. The “Concentrations” value (PA-030, blaIMP; PA-030) was 16/4, the “Lowest FICI (ATM/5)” value (PA-030, blaIMP; PA-030) was 0.26 and the “Minimum concentration” value (PA-030, blaIMP; PA-030) was 16 mg/L. For the same compound, the “Susceptibility to ATM” value (PA-030, blaIMP; PA-030, ATM/5) was “S (S (sensitive, MIC ≤ 8 mg/L))”, the “FD (fold decrease in MIC of ATM with 5)” value (PA-030, blaIMP; PA-030, lowest-FICI combination) was 4 and the MIC (PA-030, blaIMP; 5 at 1 mg/L) was 32 µg/mL. For the same compound, the MIC (PA-030, blaIMP; 5 at 2 mg/L) was 32 µg/mL, the MIC (PA-030, blaIMP; 5 at 4 mg/L) was 16 µg/mL and the MIC (PA-030, blaIMP; 5 at 8 mg/L) was 16 µg/mL. For the same compound, the MIC (PA-030, blaIMP; 5 at 16 mg/L) was 8 µg/mL, the MIC (PA-030, blaIMP; 5 at 32 mg/L) was 8 µg/mL and the MIC (PA-030, blaIMP; 5 at 64 mg/L) was 4 µg/mL. The “Activity (FICI class)” value ([1]; PA-017) was “S (S (Synergy, FICI ≤ 0.5))”, the “Concentrations” value ([1]; PA-017) was 4/4 and the “Lowest FICI (ATM/5)” value ([1]; PA-017) was 0.26. The “Minimum concentration” value ([1]; PA-017) was 4 mg/L, the “Susceptibility to ATM” value ([1]; PA-017, ATM/5) was “S (S (sensitive, MIC ≤ 8 mg/L))” and the “FD (fold decrease in MIC of ATM with 5)” value ([1]; PA-017, lowest-FICI combination) was 4. The MIC ([1]; PA-017, compound alone, read-out: MIC, Cmpd) was greater than 256 µg/mL, the MIC ([1]; read-out: MIC of ATM with 5, PA-017, 5 at 1 mg/L) was 8 µg/mL and the MIC ([1]; read-out: MIC of ATM with 5, PA-017, 5 at 2 mg/L) was 8 µg/mL. It also gave an MIC ([1]; read-out: MIC of ATM with 5, PA-017, 5 at 4 mg/L) of 4 µg/mL, an MIC ([1]; read-out: MIC of ATM with 5, PA-017, 5 at 8 mg/L) of 4 µg/mL and an MIC ([1]; read-out: MIC of ATM with 5, PA-017, 5 at 16 mg/L) of 2 µg/mL. For the same compound, the MIC ([1]; read-out: MIC of ATM with 5, PA-017, 5 at 32 mg/L) was 2 µg/mL, the MIC ([1]; read-out: MIC of ATM with 5, PA-017, 5 at 64 mg/L) was 1 µg/mL and the “Activity (FICI class)” value (PA-025, blaNDM; PA-025) was “S (S (Synergy, FICI ≤ 0.5))”. The “Concentrations” value (PA-025, blaNDM; PA-025) was 4/16, the “Lowest FICI (ATM/5)” value (PA-025, blaNDM; PA-025) was 0.28 and the “Minimum concentration” value (PA-025, blaNDM; PA-025) was 4 mg/L. The “Susceptibility to ATM” value (PA-025, blaNDM; PA-025, ATM/5) was “S (S (sensitive, MIC ≤ 8 mg/L))”, the “FD (fold decrease in MIC of ATM with 5)” value (PA-025, blaNDM; PA-025, lowest-FICI combination) was 4 and the MIC (PA-025, blaNDM; 5 at 1 mg/L) was 16 µg/mL. For the same compound, the MIC (PA-025, blaNDM; 5 at 2 mg/L) was 16 µg/mL, the MIC (PA-025, blaNDM; 5 at 4 mg/L) was 8 µg/mL and the MIC (PA-025, blaNDM; 5 at 8 mg/L) was 8 µg/mL. The MIC (PA-025, blaNDM; 5 at 16 mg/L) was 4 µg/mL, the MIC (PA-025, blaNDM; 5 at 32 mg/L) was 2 µg/mL and the MIC (PA-025, blaNDM; 5 at 64 mg/L) was 2 µg/mL. The “Activity (FICI class)” value (PA-028, blaNDM; PA-028) was “S (S (Synergy, FICI ≤ 0.5))”, the “Concentrations” value (PA-028, blaNDM; PA-028) was 2/2 and the “Lowest FICI (ATM/5)” value (PA-028, blaNDM; PA-028) was 0.25. For the same compound, the “Susceptibility to ATM” value (PA-028, blaNDM; PA-028, ATM/5) was “S (S (sensitive, MIC ≤ 8 mg/L))”, the “FD (fold decrease in MIC of ATM with 5)” value (PA-028, blaNDM; PA-028, lowest-FICI combination) was 4 and the MIC (PA-028, blaNDM; 5 at 1 mg/L) was 4 µg/mL. The MIC (PA-028, blaNDM; 5 at 2 mg/L) was 2 µg/mL, the MIC (PA-028, blaNDM; 5 at 4 mg/L) was 2 µg/mL and the MIC (PA-028, blaNDM; 5 at 8 mg/L) was 2 µg/mL. For the same compound, the MIC (PA-028, blaNDM; 5 at 16 mg/L) was 1 µg/mL, the MIC (PA-028, blaNDM; 5 at 32 mg/L) was 1 µg/mL and the MIC (PA-028, blaNDM; 5 at 64 mg/L) was 1 µg/mL. The “Activity (FICI class)” value (PA-034, blaNDM) was “S (S (Synergy, FICI ≤ 0.5))”, the “Concentrations” value (PA-034, blaNDM) was 4/8 and the “Lowest FICI (ATM/5)” value (PA-034, blaNDM) was 0.27.
